Results: article PMC5053890 (Bioorganic & medicinal chemistry, 2016)

Target: T1, GVIA iPLA2 (Homo sapiens, UniProt O60733)
T1 sequence (O60733 1-806): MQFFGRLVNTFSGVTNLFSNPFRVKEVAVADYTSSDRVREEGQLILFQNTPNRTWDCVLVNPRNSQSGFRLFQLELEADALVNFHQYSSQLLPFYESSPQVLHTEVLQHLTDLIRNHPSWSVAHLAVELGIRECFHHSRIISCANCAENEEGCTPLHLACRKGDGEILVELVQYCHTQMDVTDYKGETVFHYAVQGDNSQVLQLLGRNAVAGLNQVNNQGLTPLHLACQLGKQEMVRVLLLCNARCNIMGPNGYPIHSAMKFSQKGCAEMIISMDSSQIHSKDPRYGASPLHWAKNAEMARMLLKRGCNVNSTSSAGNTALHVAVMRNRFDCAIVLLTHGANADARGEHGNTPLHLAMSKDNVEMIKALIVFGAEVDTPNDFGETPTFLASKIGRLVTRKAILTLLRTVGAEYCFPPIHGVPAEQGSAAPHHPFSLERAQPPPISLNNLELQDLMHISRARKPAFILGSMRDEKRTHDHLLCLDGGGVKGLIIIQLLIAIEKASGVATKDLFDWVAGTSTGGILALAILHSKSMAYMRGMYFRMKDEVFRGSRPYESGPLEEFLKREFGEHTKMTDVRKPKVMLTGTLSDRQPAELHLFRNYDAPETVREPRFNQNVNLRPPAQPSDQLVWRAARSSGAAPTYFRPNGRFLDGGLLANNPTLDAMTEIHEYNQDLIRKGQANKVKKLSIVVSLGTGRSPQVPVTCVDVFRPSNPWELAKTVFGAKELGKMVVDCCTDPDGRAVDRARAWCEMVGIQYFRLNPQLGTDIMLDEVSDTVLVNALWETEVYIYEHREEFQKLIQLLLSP
Assay: hydrogen/deuterium exchange mass spectrometry
Type: binding

For `CCCCCCCCSCC(=O)C(F)(F)F` [Compound 3], the “Average % Deuteration (Presence of OTFP)” value (peptide region 481-493) was 27%, the “Average % Deuteration (Presence of OTFP)” value (peptide region 514-524) was 48% and the “Average % Deuteration (Presence of OTFP)” value (peptide region 542-562) was 51%. The “Average % Deuteration (Presence of OTFP)” value (peptide region 630-655) was 48%, the “Average % Deuteration (Presence of OTFP)” value (peptide region 656-664) was 49% and the “Average % Deuteration (Presence of OTFP)” value (peptide region 770-778) was 43%.
